Reference: patent US20160038651A1, “COMPOUNDS AND COMPOSITIONS FOR DRUG RELEASE” (INTERFACE BIOLOGICS, INC., priority 2013, published 2016)
Values after ≈ are worked out from the molar mass of the structure shown. Like-named read-outs stand apart in the source and are kept apart here. Blank lines part the entries; values can stand above or below the compound they belong to.

Legend:
S. aureus (ATCC 25923) [1] = assay: MIC & MBC determination, standard broth microdilution method; type: cell-based; conditions: for antimicrobial activity: broth microdilution, up to the highest concentration tested; for effect of the combination on the activity of CHX-A: tested in combination with CHX-A
Source text: The antimicrobial efficacy of Compound 2 and drug released from Compound 2 was investigated using a standard broth microdilution method. The minimum inhibitory concentration (MIC) and minimum bactericidal concentration (MBC) were investigated for Compound 2, drug released from Compound 2, triethylene glycol (TEG), Ciprofloxacin hydrochloride (Cipro®HCl), chlorhexidine diacetate (CHX-A), and Compound 2+CHX-A. The MIC is defined as the lowest concentration of an antimicrobial agent that will inhibit visible growth of a microorganism after overnight incubation. The MBC is defined as the lowest concentration of an antimicrobial agent required to kill 99.9% of a microorganism population. This study was carried out using two gram positive bacteria, E. faecalis (ATCC 29212) and S. aureus (ATCC 25923), and two gram negative bacteria, E. coli (ATCC 25922) and P. aeruginosa (ATCC 27853). The test samples were prepared using 2-fold dilutions per well and covered a concentration range at least 2 dilutions above and 2 dilutions below literature MIC values for the microorganisms tested.
The antimicrobial efficacy of Compound 3 and drug released from Compound 3 investigated using a standard broth microdilution method. The MIC and MBC were investigated for Compound 3, drug released from Compound 3, TEG, Cipro®HCl, CHX-A, and Compound 3+CHX-A. This study was carried out using two gram positive bacteria, E. faecalis (ATCC 29212) and S. aureus (ATCC 25923), and two gram negative bacteria, E. coli (ATCC 25922) and P. aeruginosa (ATCC 27853). The test samples were prepared using 2-fold dilutions per well and covered a concentration range at least 2 dilutions above and 2 dilutions below literature MIC values for the microorganisms tested.

S. aureus (ATCC 25923) [2] = conditions: cited from earlier work
mice = assay: Acute Systemic Toxicity following ISO 10993-11; type: in vivo; conditions: single injection 50 mL/kg per mouse, observed to 72 h
Experimental: A single injection dose of 50 mL/kg per mouse (˜1 mL) was administered to 5 mice per test sample.

[3] = Drug release in solution (PBS pH 7.4, 37° C., RP-HPLC); type: physicochemical; conditions: 0.1 mg/ml in PBS pH 7.4, 37° C.
Experimental: Compound 2 was dissolved in PBS (pH 7.4) at 0.1 mg/ml and placed in incubator at 37° C. At each time point (0, 1, 3, 7, 14, 21, & 28 days), solution was removed from incubator and analyzed for the drug by RP-HPLC using established protocols (FIG. 6). […] The release profile of compound 2 was also evaluated in a device prototype assembly using bovine serum, blood (porcine) or a gel matrix.
Compound 3 was dissolved in PBS (pH 7.4) at 0.1 mg/ml and placed in incubator at 37° C. At each time point (0, 1, 3, 7, 14, 21, & 28 days), solution was removed from incubator and analyzed for drug by RP-HPLC using established protocols.

New Zealand rabbits = assay: Intracutaneous Reactivity, ISO 10993-10: 2010; type: in vivo; conditions: 0.2 mL intracutaneous injections, scored after 24, 48, 72 h
Experimental: (§1) Compound 2 was dissolved in PBS (9.2×10 mg/mL) and tested for Intracutaneous Reactivity in accordance with ISO 10993-10: 2010 Standard, Biological Evaluation of Medical Devices, Part 10: Tests for Irritation and Skin Sensitization, Pages 11-14. Each rabbit received five sequential 0.2 mL intracutaneous injections along either side of the dorsal mid-line with the test article on one side and the control on the other. Three New Zealand rabbits were used per sample and control. The injection sites were observed and scored for erythema (redness) and edema (swelling) after 24, 48, and 72 h on a scale of 1 to 4.
as §1, with “Compound 3” for “Compound 2”, “PBS (5.4×10^−2” for “PBS (9.2×10”

[4] = Accelerated drug release in acidic, basic or neutral conditions (RP-HPLC); type: physicochemical; conditions: 37° C.
Experimental: Compound 2 was prepared at 10 mg/ml in 0.1 N HCl (final pH ˜4), 0.1 N NaOH (final pH ˜10), and PBS (final pH ˜7). Samples were incubated at 37° C. in acidic, basic, or neutral conditions. At each time point, the drug concentration was quantified by RP-HPLC.

Compound: Ciprofloxacin hydrochloride [Cipro*HCl]
- MBC Experimental (S. aureus (ATCC 25923) [1]; S. aureus, Table 4): 0.5 to 1 µg/mL
- MIC Experimental (S. aureus (ATCC 25923) [1]; S. aureus, Table 4): 0.25 to 0.5 µg/mL
- MBC Experimental (S. aureus (ATCC 25923) [1]; S. aureus, Table 5): 0.5 to 1 µg/mL
- MIC Experimental (S. aureus (ATCC 25923) [1]; S. aureus, Table 5, in µg/mL): 0.25-0.5
- MBC Literature (S. aureus (ATCC 25923) [2]; Table 4): 0.9 µg/mL
- MIC Literature (S. aureus (ATCC 25923) [2]; Table 4): 0.5 µg/mL
- MBC Literature (S. aureus (ATCC 25923) [2]; Table 5): 0.9 µg/mL
- MIC Literature (S. aureus (ATCC 25923) [2]; Table 5): 0.5 µg/mL

Compound: O=C(OCCOCCOCCO)c1cn(C2CC2)c2cc(N3CCNCC3)c(F)cc2c1=O [Compound 3]
- MBC Experimental (S. aureus (ATCC 25923) [1]; S. aureus, Table 5): >55.5 µg/mL
- MIC Experimental (S. aureus (ATCC 25923) [1]; S. aureus, Table 5, in µg/mL): >55.5
- antimicrobial activity (S. aureus (ATCC 25923) [1]): did not show any antimicrobial activity
- effect of the combination on the activity of CHX-A (S. aureus (ATCC 25923) [1]): did not affect the activity of CHX-A
- signs of toxicity (Acute Systemic Toxicity) (mice; in PBS 8×10^−4-8×10^−2 mg/mL, all concentrations): no signs of toxicity
- drug concentration with time (drug release) ([3]; out to at least 28 days): linear increase
- irritation (erythema and edema, Intracutaneous Reactivity) (New Zealand rabbits; in PBS 5.4×10^−2 mg/mL): non-irritant

Compound: O=C(OCCOCCOCCOC(=O)c1cn(C2CC2)c2cc(N3CCNCC3)c(F)cc2c1=O)c1cn(C2CC2)c2cc(N3CCNCC3)c(F)cc2c1=O [Compound 2]
- MBC Experimental (S. aureus (ATCC 25923) [1]; S. aureus, Table 4): >78 µg/mL
- MIC Experimental (S. aureus (ATCC 25923) [1]; S. aureus, Table 4): >78 µg/mL
- antimicrobial activity (S. aureus (ATCC 25923) [1]): did not show any antimicrobial activity
- effect of the combination on the activity of CHX-A (S. aureus (ATCC 25923) [1]): did not affect the activity of CHX-A
- signs of toxicity (Acute Systemic Toxicity) (mice; in PBS 4×10^−5-9.7×10^−1 mg/mL, higher dosage): no signs of toxicity
- drug release ([4]; 10 mg/ml in 0.1 N HCl (final pH ~4), after 7 days): ~71%
- drug release ([4]; 10 mg/ml in 0.1 N NaOH (final pH ~10), in less than 1 day): 100%
- drug release ([4]; 10 mg/ml in PBS (final pH ~7), after 7 days): ~2%
- total drug released ([3]; after 28 days): ~8%
- irritation (erythema and edema, Intracutaneous Reactivity) (New Zealand rabbits; in PBS 9.2×10 mg/mL): non-irritant

More lines, main results first:

- MIC Experimental (S. aureus (ATCC 25923) [1]; S. aureus, Table 5, in µg/mL): >100
- MIC (S. aureus (ATCC 25923) [1]; Staphylococcus aureus, ATCC25923, S. aureus, Table 4, read-out: MIC Experimental): > 100 µg/mL
Compound: OCCOCCOCCO [TEG, triethylene glycol]
- MBC Experimental (S. aureus (ATCC 25923) [1]; S. aureus, Table 5): >100 µg/mL
- MBC (S. aureus (ATCC 25923) [1]; Staphylococcus aureus, ATCC25923, S. aureus, Table 4, read-out: MBC Experimental): > 100 µg/mL
- antimicrobial activity (S. aureus (ATCC 25923) [1]): No antimicrobial activity

- MIC Experimental (S. aureus (ATCC 25923) [1]; S. aureus, Table 4): 1 µg/mL
- MIC Experimental (S. aureus (ATCC 25923) [1]; S. aureus, Table 5, in µg/mL): 1
Compound: CC(=O)O.CC(=O)O.NC(=N\CCCCCC/N=C(N)/N=C(\N)Nc1ccc(Cl)cc1)/N=C(\N)Nc1ccc(Cl)cc1 [CHX-A, chlorhexidine diacetate]
- MBC Experimental (S. aureus (ATCC 25923) [1]; S. aureus, Table 4): 1 to 4 µg/mL
- MBC Experimental (S. aureus (ATCC 25923) [1]; S. aureus, Table 5): 1 to 4 µg/mL
- MBC Literature (S. aureus (ATCC 25923) [2]; Table 4): 3.9 µg/mL
- MIC Literature (S. aureus (ATCC 25923) [2]; Table 4): 0.9 µg/mL
- MBC Literature (S. aureus (ATCC 25923) [2]; Table 5): 3.9 µg/mL
- MIC Literature (S. aureus (ATCC 25923) [2]; Table 5): 0.9 µg/mL

- MIC Experimental (S. aureus (ATCC 25923) [1]; S. aureus, Table 5, in µg/mL): 0.5
Compound: O=C(O)c1cn(C2CC2)c2cc(N3CCNCC3)c(F)cc2c1=O [Cipro Released from Compound 3]
- MBC Experimental (S. aureus (ATCC 25923) [1]; S. aureus, Table 5): 1 µg/mL (≈ 3.02 µM)
- antimicrobial activity (S. aureus (ATCC 25923) [1]): antimicrobial activity consistent with both the Cipro®HCl controls and literature values
